In brackets after ≈: the same amount, converted by molar mass.
Columns and labels:
[1] = tested on: SOS stress response in E. coli TOP10F’; experiment: SOS stress reporter assay (PlexA-mNG); format: cell-based; conditions: Fig. S4
Procedure: (§1) To examine the potential link between DNA gyrase inhibition, SOS stress, and CE stress, we designed a fluorescent SOS reporter plasmid, similar to the reporter plasmids used to study CE stresses.
Figure S3: Growth kinetics of lomefloxacin, gepotidacin, A2 and B1 on WT, FQR and GEPR mutants. E. coli TOP10F’ cells were treated with EC80 concentrations of compounds and growth (OD600) recorded over time.
Graphs indicate % growth compared to DMSO control. Error bars indicate standard deviations of triplicates.
Data are representative of three independent experiments with similar results.
Fold change (RFU/OD600) MMC 1.6 μM
Fold change (RFU/OD600) Lome 18 μM
Figure S4: SOS stress induced by mitomycin C (MMC) and lomefloxacin (Lome). A) E. coli MC4100 or B) TOP10F’ cells with a plasmid expressing mNeonGreen under control of a PlexA promotor were treated with compounds and growth (OD600) and fluorescence recorded over time. Graphs indicate fold change in growth-adjusted fluorescence compared to DMSO control. Error bars indicate standard deviations of triplicates. […]

[2] = tested on: Rcs stress response in E. coli TOP10F’; experiment: Rcs stress kinetics reporter assay; format: cell-based
Procedure: (§2) Stress was measured in real-time during 10 h following compound treatment by normalizing the fluorescence intensity for growth as indicated by the optical density at 600 nm (OD600) of the culture.
(§3) 3 Bacterial stress responses of different compound classes as shown in panel (A). (B) Rcs, (C) σE, (D) Cpx, and (E) heat shock. Graphs show fold change in fluorescence normalized for OD600 at EC80 compound concentrations over the course of 10h. Fold change values were determined by comparing OD600‑normalized fluorescence of compound-treated samples to DMSO treated samples. PMBN is used as a CE stress-inducing control at 25 μg/mL, which is the concentration used as a control during the screening campaign. Chloramphenicol at 1 μg/mL is used as a non-stress-inducing antibiotic control. Error bars indicate standard deviation of the average of triplicate samples from at least two independent experiments. (F) Overview of the different stress responses based on the compound class.
(§4) For lower throughput analysis under laboratory conditions, cultures grown to OD600 of 0.3–0.4 were diluted to a final concnetration of 0.05 OD600 units/mL in black, clear-bottom 96-well plates (Greiner Bio-One B.V.). Plates were incubated in a Biotek HTX or H1 plate reader (Agilent Technologies) at 37 °C with continuous shaking. Kinetic studies were performed by measuring OD600 and fluorescence (Ex./Em. Λ: 485/528 nm) every 20 min for 10h. For end point measurements, fluorescence was measured at T = 0 and once more at T = 150 min.

[3] = tested on: Rcs stress response in E. coli MC4100 (WT, FQR, GEPR); experiment: Rcs stress reporter assay in MC4100 wildtype and resistant mutants; format: cell-based; conditions: EC80 concentrations
Description: Serial passaging of E. coli MC4100 in the presence of increasing concentrations of lomefloxacin or gepotidacin yielded resistant variants of E. coli MC4100. We used MC4100 to raise resistance, because unlike the screening strain TOP10F’, this strain has a functional SOS stress response, which has been implicated in developing resistance against quinolones. Compounds also elicited a robust Rcs stress response in E. coli MC4100, allowing for this strain to be used for stress assays.
4 Rcs stress induced by EC80 concentrations of (A) lomefloxacin, (B) gepotidacin, (C) A2, and (D) B1 in wildtype (WT), fluoroquinolone resistant (FQR) or gepotidacin resistant (GEPR) bacteria. Graphs show the fold change in fluorescence adjusted for bacterial growth as determined by OD600. Error bars indicate the standard deviation of triplicate samples. Data are representative of three independent experiments with similar results. […]
as §4

[4] = tested on: SOS stress response in E. coli MC4100; experiment: SOS stress reporter assay (PlexA-mNG); format: cell-based; conditions: EC80 compound concentrations (Fig. 5A); Fig. S4
Description: as §1
5 (A) SOS stress induced by different compounds at EC80 concentrations in E. coli MC4100. (B) Rcs stress of different compounds at EC80 concentrations in E. coli MC4100. (C) Rcs stress of the nonquinolone gyrase inhibitor LEI-800 in TOP10F’. (D) Rcs stress induced by mitomycin C in E. coli TOP10F’ and E. coli MC4100. Graphs show fold change in fluorescence adjusted for bacterial growth (OD600). Error bars indicate standard deviation of triplicates. Data are representative of two independent experiments with similar results.

[5] = tested on: Rcs stress (PrprA-mNG) in E. coli TOP10F’ cells; experiment: Rcs stress reporter assay, laboratory scale 96-well end point; format: cell-based; conditions: 50 μM MRL-494, 150 min, compared to 25 μM PMBN (100%)
Procedure: as §4

E. coli TOP10F' = experiment: Growth inhibition after 7 hours (EC80/EC50); conditions: for EC50 / IC80: Escherichia coli, 7 h; for EC50: read-out: EC50 TOP10F'; for IC80: read-out: EC80 TOP10F'
E. coli MC4100 = experiment: Growth inhibition after 7 hours (EC80/EC50); conditions: Escherichia coli, MC4100, 7 h; for EC50: read-out: EC50 MC4100; for IC80: read-out: EC80 MC4100
[6] = tested on: E. coli MC4100 FQR and GEPR mutants; experiment: Growth kinetics on resistant mutants; format: cell-based; conditions: EC80 concentrations, Fig. S3
Procedure: ONC of E. coli MC4100 were diluted to OD600 = 0.07 in 20 mL LB supplemented with an initial concentration of 0.4 μM lomefloxacin, 8 μM gepotidacin, or no antibiotic. After overnight incubation, part of the culture was plated onto LB agar plates with the same concentration of lomefloxacin or gepotidacin to isolate resistant colonies. OD600 of the remaining culture was determined and diluted to OD600 = 0.1 into fresh medium with a 1.5–2-fold increased concentration of lomefloxacin or gepotidacin. […] Resistant colonies were sent for Whole Genome Sequencing using short Illumina reads at MicrobesNG (Birmingham, UK). Sequencing data was analyzed using CLC Genomics Workbench (Qiagen).
Figure S3: Growth kinetics of lomefloxacin, gepotidacin, A2 and B1 on WT, FQR and GEPR mutants. E. coli
TOP10F’ cells were treated with EC80 concentrations of compounds and growth (OD600) recorded over time.
Graphs indicate % growth compared to DMSO control. Error bars indicate standard deviations of triplicates. […]

[7] = tested on: Cpx stress response in E. coli TOP10F’; experiment: Cpx stress kinetics reporter assay; format: cell-based
Procedure: as §2, §3, §4

[8] = tested on: heat shock (groES) response in E. coli TOP10F’; experiment: Heat shock (groES) stress kinetics reporter assay; format: cell-based; conditions: PMBN 25 μg/mL
Procedure: as §2
as §3, with “Error bars indicate standard deviation of the average of triplicate samples from at least two independent experiments. (F) Overview of the different stress responses based on the compound class.” left out
as §4

[9] = tested on: σE stress response in E. coli TOP10F’; experiment: σE stress kinetics reporter assay; format: cell-based
Procedure: as §2, §3, §4

S. aureus USA 300 = experiment: MIC broth microdilution; format: cell-based; conditions: Staphylococcus aureus, USA300; clinical isolate; CAMHB, median of triplicates; read-out: MIC (μg/mL) S. aureus USA 300
Procedure: (§5) The antibacterial activity of the compounds was determined by measuring their minimum inhibitory concentration (MIC) values using the broth microdilution method according to the Clinical and Laboratory Standards Institute guidelines (CLSI). Briefly, a single colony from blood agar plates was inoculated into cation-adjusted Mueller-Hinton broth (CAMHB) and grown to OD600 = 0.5. Next, 10^6 CFU/mL were added to a 2-fold serial dilution series of test compounds and incubated at 37 °C, 600 rpm overnight (18–20 h for Gram-negative strains, 20–24 h for Gram-positive strains), after which the plates were visually inspected for bacterial growth. MICs are reported as the median of triplicates.

E. coli 25922 = experiment: MIC broth microdilution; format: cell-based; conditions: Escherichia coli, CAMHB, median of triplicates, read-out: MIC (μg/mL) E. coli 25922
Procedure: as §5

P. aeruginosa 27853 = experiment: MIC broth microdilution; format: cell-based; conditions: Pseudomonas aeruginosa, clinical isolate, CAMHB, median of triplicates, read-out: MIC (μg/mL) P. aeruginosa 27853
Procedure: as §5

K. pneumoniae 13883 = experiment: MIC broth microdilution; format: cell-based; conditions: Klebsiella pneumoniae, clinical isolate, CAMHB, median of triplicates, read-out: MIC (μg/mL) K. pneumoniae 13883
Procedure: as §5

E. coli TOP10F’ = experiment: MIC broth microdilution; format: cell-based; conditions: Escherichia coli; screening strain; CAMHB, median of triplicates; read-out: MIC (μg/mL) E. coli TOP10F’
Procedure: as §5

A. baumanni 9955 = experiment: MIC broth microdilution; format: cell-based; conditions: Acinetobacter baumannii, clinical isolate, CAMHB, median of triplicates, read-out: MIC (μg/mL) A. baumanni 9955
Procedure: as §5

E. coli BW25113 = experiment: MIC broth microdilution; format: cell-based; conditions: Escherichia coli, CAMHB, median of triplicates, read-out: MIC (μg/mL) E. coli BW25113
Procedure: as §5

[10] = Figure 3F, compounds at EC80, PMBN 25 μg/mL
[11] = compounds at EC80, PMBN 25 μg/mL

`CO[C@@]12[C@H](COC(N)=O)C3=C(C(=O)C(C)=C(N)C3=O)N1C[C@@H]1N[C@@H]12` [mitomycin C] was tested, and the “SOS stress induction in TOP10F’” value [1] was “did not induce high fluorescence”, the “Rcs stress induction in SOS-deficient TOP10F’” value ([2]; fold change fluorescence/OD600) was “at lower levels than the gyrase inhibitors” and the “Rcs stress induction in MC4100 wildtype” value [3] was “Neither compound induced Rcs stress”. The “SOS stress induction in MC4100” value [4] was “high fluorescence”.

For `NC(N)=NC(=O)CC(Nc1nc(N=C(N)N)nc(NC2CCC(NC(=O)Cn3nnc(-c4ccc(F)cc4)n3)CC2)n1)C1CC1` (stereo not shown) [MRL-494, reference compound], the “% effect (Rcs stress-induced fluorescence)” value [5] was 100.4%, the “EC50 TOP10F'” value (E. coli TOP10F'; growth after 7 hours inhibited by 50% compared to DMSO control) was 16 µg/mL (≈ 25.7 µM) and the “EC80 TOP10F'” value (E. coli TOP10F'; growth after 7 hours inhibited by 80% compared to DMSO control) was 32 µg/mL (≈ 51.4 µM).

`CCn1cc(C(=O)O)c(=O)c2cc(F)c(N3CCNC(C)C3)c(F)c21` (stereo not shown) [lomefloxacin, Lomefloxacin, reference compound] was tested, and the EC50 (E. coli MC4100) was 0.125 µg/mL (≈ 0.356 µM), the IC80 (E. coli MC4100) was 0.25 µg/mL (≈ 0.712 µM) and the “SOS stress induction in TOP10F’” value [1] was “did not induce high fluorescence”. For the same molecule, the EC50 (E. coli TOP10F') was 0.031 µg/mL (≈ 0.0882 µM), the IC80 (E. coli TOP10F') was 2 µg/mL (≈ 5.69 µM) and the “growth inhibition / susceptibility of GEPR mutant” value [6] was “less susceptible”. For the same molecule, the “Rcs stress in FQR (gyrA S83L) mutant” value [3] was “lacked Rcs stress” and the “SOS stress induction in MC4100” value [4] was “high fluorescence”.

In the case of polymyxin B nonapeptide [PMBN], the “Cpx Pattern” value [7, 10] is reported as “Continuous”, the “Cpx Response time” value [7, 10] is reported as “Slow” and the heat shock induction [8] is reported as “did not induce heat shock”. For the same molecule, the “Rcs Response time” value [2, 10] was “Fast”, the “Rcs Pattern” value [2, 11] was “Single peak” and the “σE Response time” value [9, 10] was “Fast”. The “σE Pattern” value [9, 11] was “Single peak”.

`O=c1ccc2ncc(=O)n3c2n1C[C@H]3CN1CCC(NCc2cc3c(cn2)OCCC3)CC1` [gepotidacin, Gepotidacin, reference compound] gave a Cpx onset time ([7]; EC80 concentrations) of 150 to 200 min, an MIC (S. aureus USA 300) of 0.25 µg/mL (≈ 0.557 µM) and an MIC (E. coli 25922) of 2 µg/mL (≈ 4.46 µM). For the same molecule, the MIC (P. aeruginosa 27853) was 8 µg/mL (≈ 17.8 µM), the MIC (K. pneumoniae 13883) was 4 µg/mL (≈ 8.92 µM) and the MIC (E. coli TOP10F’) was 0.06 µg/mL (≈ 0.134 µM). It also gave an MIC (A. baumanni 9955) of 16 µg/mL (≈ 35.7 µM), an MIC (E. coli BW25113) of 1 µg/mL (≈ 2.23 µM) and an EC50 (E. coli MC4100) of 1 µg/mL (≈ 2.23 µM). For the same molecule, the IC80 (E. coli MC4100) was 8 µg/mL (≈ 17.8 µM), the EC50 (E. coli TOP10F') was 0.125 µg/mL (≈ 0.279 µM) and the IC80 (E. coli TOP10F') was 8 µg/mL (≈ 17.8 µM). The “growth inhibition / susceptibility of FQR (gyrA S83L) mutant” value [6] was “remained susceptible to growth inhibition”, the “growth inhibition / susceptibility of GEPR mutant” value [6] was “moderate insensitivity” and the Rcs onset time ([2]; EC80 concentrations) was about 100 min. The “time of (first) Rcs peak post-treatment” value ([2]; EC80 concentrations) was 260 to 280 min, the “fold increase in Rcs stress (up to)” value ([2]; EC80 concentrations, fluorescence/OD600 vs DMSO, 10 h) was about 17 fold and the “Rcs Pattern” value [2, 11] was “biphasic”. The “Rcs stress in FQR (gyrA S83L) mutant” value [3] was “still exhibited Rcs stress”, the “Rcs stress in GEPR mutant” value [3] was “did not show Rcs stress” and the “time of primary σE peak” value ([9]; EC80 concentrations) was about 150 min. For the same molecule, the σE onset time ([9]; EC80 concentrations) was about 60 min, the “fold change in σE stress (up to)” value ([9]; EC80 concentrations, vs DMSO) was about 3 fold and the “σE Pattern” value [9, 11] was “biphasic”.
